Laboratory results as given in US7208157B2, “Proteolysis targeting chimeric pharmaceutical” (California Institute of Technology, priority 2000, dated 2007).
Entries after “also recorded” stand apart in the source; their conditions may differ. Where a SMILES comes first, the peptide text is derived from it. [ ]: non-standard residue; d: D form. Nle = CCCC[C@H](N)C(=O)O

Columns and labels:
MetAP-2 [1] = target: T1, MetAP-2 (Homo sapiens, UniProt P50579); assay: Degradation experiments with Xenopus egg extracts; format: biochemical, Xenopus laevis
T1 sequence (P50579 whole entry, species assumed): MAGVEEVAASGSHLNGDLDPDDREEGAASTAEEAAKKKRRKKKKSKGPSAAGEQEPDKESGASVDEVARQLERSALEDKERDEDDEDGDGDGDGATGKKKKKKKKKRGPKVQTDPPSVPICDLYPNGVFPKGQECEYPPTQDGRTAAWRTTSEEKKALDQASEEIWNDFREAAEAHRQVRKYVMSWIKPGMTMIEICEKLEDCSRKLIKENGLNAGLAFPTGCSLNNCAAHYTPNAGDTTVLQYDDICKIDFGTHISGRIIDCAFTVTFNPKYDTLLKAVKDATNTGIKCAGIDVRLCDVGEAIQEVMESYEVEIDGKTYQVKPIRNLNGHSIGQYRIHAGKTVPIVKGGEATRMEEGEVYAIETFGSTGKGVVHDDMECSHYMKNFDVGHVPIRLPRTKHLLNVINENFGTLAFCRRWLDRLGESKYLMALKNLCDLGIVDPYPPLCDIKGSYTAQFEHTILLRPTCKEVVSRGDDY
Protocol: Extracts from unfertilized Xenopus laevis eggs were prepared the day of the experiment, as described (See Murray, A. W., Methods Cell Biol., 3:581–605 (1991)). The MetAP-2-Protac-1 mixture (4 μl of 9 μM MetAP-2 plus 50 μMProtac-1) or MetAP-2 alone was added to […] of extract in addition to OVA (10 μM final), constitutively active IKK (IKK-EE, 0.4 μg), and okadaic acid (OA; 10 μM final). N-acetyl-leu-leu-norleucinal (LLnL, 50 μM final), epoxomicin (10 μM final), or DMSO vehicle were added to the indicated concentrations to inhibit degradation by the proteasome. The protease inhibitors chymostatin, pepstatin, and leupeptin ([…] final concentration) also were added to the extracts. Reactions were incubated for the indicated times at room temperature and terminated by adding 50 μl of SDS/PAGE loading buffer. Samples were evaluated by Western blotting as described above.
However, the key issues are whether Protac-1 can specifically activate MetAP-2 degradation, and whether targeted degradation can be achieved by endogenous ubiquitin/proteasome pathway components at typical intracellular concentrations. To address these questions, MetAP-2 was preincubated with Protac-1 to allow the complexes to form, and then added the mixture to Xenopus egg extract supplemented with IKK-EE (See Mercurio, F., Zhu, et al., Science,. 278:860–66. (1997)), OA, and OVA. The addition of IKK-EE and OA was intended to sustain phosphorylation of the IkBa peptide moiety of Protac-1, whereas OVA was added to prevent the further linkage of Protac-1 to MetAP-2. […] Moreover, addition of both IKK-EE and OA was required for optimal degradation of MetAP-2-Protac-1. Similarly, we have seen specific turnover of the MetAP-2-Protac-1complex, but not free MetAP-2, in three independent experiments. […] MetAP-2 turnover was very specific, in that maximal degradation required agents predicted to sustain phosphorylation of the LkBa peptide.

SCF^β-TRCP [2] = target: T2, SCF^β-TRCP (Homo sapiens, UniProt Q9Y297); assay: Binding assay: recruitment of MetAP-2 to SCFβ-TRCP beads; design: made in house; details: MetAP-2 (18 μM) preincubated with Protac-1 (100 μM) 45 min; beads 1 hr room temperature; vs control beads
Protocol: 293T cell pellets were lysed with 200 μl of lysis buffer (25 mMTris/Cl, pH 7.5/150 mM NaCl/0.1% Triton X-100/5 mM NaF/0.05 mM EGTA/1 mM PMSF). Pellets from cells transfected with vector, pFLAG-β-TRCP, or pFLAG-Cul-1 were vortexed for 10 sec, then incubated on ice for 15 min. After centrifugation at 13,000 rpm in an Eppendorf microfuge (Germany) for 5 min at 4° C., the supernatant was added to 20 μl of FLAG M2 beads (Sigma), which were washed with lysis buffer three times before immu-noprecipitation. […] The beads were washed once each with buffers A and B. After centrifugation at 13,000 rpm in an Eppendorf microfuge (Germany) for 1 min, half of the bead and supernatant fractions, representing bound and unbound, respectively, were evaluated by Western blotting as described above. […] SDS/PAGE loading buffer was added to terminate reactions, which were evaluated by Western blotting as described above.
Before testing the activity of Protac-1, an approach to isolate and assay SCF^β-TRCP complexes in vitro as described (See Tan, P., et al., Mol. Cell, 3:327–33 (1999)) was first adapted. […] The beads and supernatant then were evaluated by Western blot analysis for the presence of MetAP-2. […]
Target sequence in this assay (Q9Y297 whole entry): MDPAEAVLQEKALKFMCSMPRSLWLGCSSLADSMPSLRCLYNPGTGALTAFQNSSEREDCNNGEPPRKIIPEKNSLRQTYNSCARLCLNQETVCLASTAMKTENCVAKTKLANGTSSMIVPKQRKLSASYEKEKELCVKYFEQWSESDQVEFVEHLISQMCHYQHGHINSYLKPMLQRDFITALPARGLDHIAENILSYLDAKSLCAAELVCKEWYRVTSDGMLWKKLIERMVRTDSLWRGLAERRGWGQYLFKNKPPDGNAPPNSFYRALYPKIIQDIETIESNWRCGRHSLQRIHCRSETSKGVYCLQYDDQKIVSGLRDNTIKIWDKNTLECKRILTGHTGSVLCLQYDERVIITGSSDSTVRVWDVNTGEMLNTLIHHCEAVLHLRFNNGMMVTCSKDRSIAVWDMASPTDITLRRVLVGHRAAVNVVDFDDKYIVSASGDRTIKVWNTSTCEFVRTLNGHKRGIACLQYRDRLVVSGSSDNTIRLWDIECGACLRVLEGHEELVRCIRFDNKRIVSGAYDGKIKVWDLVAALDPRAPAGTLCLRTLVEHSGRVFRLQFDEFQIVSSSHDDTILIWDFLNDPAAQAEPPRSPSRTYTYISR
Target sequence in this assay (Q13616 whole entry partner): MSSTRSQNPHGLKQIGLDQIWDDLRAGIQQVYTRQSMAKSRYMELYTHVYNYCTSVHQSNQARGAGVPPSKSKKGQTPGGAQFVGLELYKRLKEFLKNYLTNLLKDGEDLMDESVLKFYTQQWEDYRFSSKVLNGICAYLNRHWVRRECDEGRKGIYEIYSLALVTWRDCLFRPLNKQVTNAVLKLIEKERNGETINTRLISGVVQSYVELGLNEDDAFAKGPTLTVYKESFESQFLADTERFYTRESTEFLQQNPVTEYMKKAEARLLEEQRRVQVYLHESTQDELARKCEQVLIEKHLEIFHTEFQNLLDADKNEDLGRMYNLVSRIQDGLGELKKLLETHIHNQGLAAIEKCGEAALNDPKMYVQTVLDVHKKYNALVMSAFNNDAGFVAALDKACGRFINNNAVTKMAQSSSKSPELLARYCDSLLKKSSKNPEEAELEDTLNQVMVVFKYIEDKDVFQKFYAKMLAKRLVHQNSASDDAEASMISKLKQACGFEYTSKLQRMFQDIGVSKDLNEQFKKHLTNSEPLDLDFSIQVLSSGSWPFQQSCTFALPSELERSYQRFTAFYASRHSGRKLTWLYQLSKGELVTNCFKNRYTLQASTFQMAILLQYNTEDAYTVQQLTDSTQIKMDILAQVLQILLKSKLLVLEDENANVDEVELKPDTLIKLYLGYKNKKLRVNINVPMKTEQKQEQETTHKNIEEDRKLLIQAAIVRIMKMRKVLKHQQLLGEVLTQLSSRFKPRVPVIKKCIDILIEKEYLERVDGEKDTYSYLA
Target sequence in this assay (P63208 2-163 partner limits assumed): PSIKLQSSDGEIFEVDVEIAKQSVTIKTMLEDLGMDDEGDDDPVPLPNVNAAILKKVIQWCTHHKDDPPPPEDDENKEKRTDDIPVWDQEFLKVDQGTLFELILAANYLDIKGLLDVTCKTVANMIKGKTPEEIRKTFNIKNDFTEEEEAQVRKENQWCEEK
Target sequence in this assay (P62877 whole entry partner): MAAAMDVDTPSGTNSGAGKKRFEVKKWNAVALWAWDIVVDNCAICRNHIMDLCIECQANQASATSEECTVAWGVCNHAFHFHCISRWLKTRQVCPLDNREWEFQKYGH
Target sequence in this assay (P50579 whole entry, further chain): as the sequence (P50579 whole entry, species assumed) above

SCF^β-TRCP [3] = target: T2, SCF^β-TRCP; assay: Control ubiquitination of IKK-phosphorylated glutathione S-transferase-IkBalpha by SCFβ-TRCP immunoprecipitates; format: biochemical; design: made in house; host or cells: 293T cells, transient transfection, anti-FLAG immunoprecipitation; details: anti-FLAG SCFβ-TRCP immunoprecipitates; data not shown
Description: Before testing the activity of Protac-1, an approach to isolate and assay SCF^β-TRCP complexes in vitro as described (See Tan, P., et al., Mol. Cell, 3:327–33 (1999)) was first adapted. Lysates from 293T cells transfected with plasmids that encoded β-TRCP and Cul-1 proteins tagged with the FLAG epitope at the N terminus were immunoprecipitated with anti-FLAG antibody-conjugated resin. Immunoblot analysis confirmed that all components of SCF^β-TRCP were present in the anti-FLAG immunoprecipitate, including Skp 1, Hrt 1, and the transfected FLAG Cul-1 and FLAG β-TRCP (data not shown). Furthermore, control experiments confirmed that these immunoprecipitates promoted ubiquitination of IKK-phosphorylated glutathione S-transferase-LkBalpha in a manner that was inhibited by the IPP and Protac-1 (data not shown; ref. 7). To determine whether Protac-1 could recruit MetAP-2 to SCF^β-TRCP , MetAP-2 (18 μM) was first incubated with Protac-1 (100 μM) for 45 mm at room temperature. After isolation of SCF^β-TRCP complexes, the anti-FLAG beads were supplemented with the MetAP-2-Protac-l mixture and rotated at room temperature for 1 hr. The beads and supernatant then were evaluated by Western blot analysis for the presence of MetAP-2. […]
Target sequence in this assay (Q9Y297 whole entry): as the sequence (Q9Y297 whole entry) above
Target sequence in this assay (Q13616 whole entry partner): as the sequence (Q13616 whole entry partner) above
Target sequence in this assay (P63208 2-163 partner limits assumed): as the sequence (P63208 2-163 partner limits assumed) above
Target sequence in this assay (P62877 whole entry partner): as the sequence (P62877 whole entry partner) above

MetAP-2 [4] = assay: In vitro ubiquitination of MetAP-2 by SCFβ-TRCP beads with E1, E2 (Cdc34), ubiquitin, ATP; format: biochemical; details: 1 hr at 30° C.; 47-kDa and 67-kDa MetAP-2 preparations; Western blot
Protocol: Pellets from cells transfected with vector, pFLAG-β-TRCP, or pFLAG-Cul-1 were vortexed for 10 sec, then incubated on ice for 15 min. After centrifugation at 13,000 rpm in an Eppendorf microfuge (Germany) for 5 min at 4° C., the supernatant was added to 20 μl of FLAG M2 beads (Sigma), which were washed with lysis buffer three times before immu-noprecipitation. Lysates were incubated with the beads on a rotator for 2 hr at 4° C., followed by one wash with buffer A (25 mM Hepes buffer, pH 7.4/0.01% Triton X-100/150 mM NaCl) and one wash with buffer B (the same buffer without the Triton X-100). […] After the addition of ligand, the beads were rotated at room temperature for 1 hr. The beads were washed once each with buffers A and B. After centrifugation at 13,000 rpm in an Eppendorf microfuge (Germany) for 1 min, half of the bead and supernatant fractions, representing bound and unbound, respectively, were evaluated by Western blotting as described above. For ubiquitination reactions, 4 μl of 18 μM MetAP-2, 4 μl of 100 μM Protac-1, 0.5 ml of 0.1 μg/μl purified mouse E1, 1 μl of 0.5 μg/μl human Cdc34 E2, and 1 μl of 25 mM ATP were added to 20 μl (packed volume) of washed FLAG-M2 beads. […] SDS/PAGE loading buffer was added to terminate reactions, which were evaluated by Western blotting as described above. […]

MetAP-2 [5] = target: T1, MetAP-2; assay: MetAP-2-Protac-1 coupling assay (SDS/PAGE, anti-MetAP-2 immunoblot); format: binding; details: MetAP-2 incubated with increasing Protac-1, or free IPP (50 μM) or free OVA (50 μM), room temperature 45 min
T1 sequence (P50579 110-478 limits assumed): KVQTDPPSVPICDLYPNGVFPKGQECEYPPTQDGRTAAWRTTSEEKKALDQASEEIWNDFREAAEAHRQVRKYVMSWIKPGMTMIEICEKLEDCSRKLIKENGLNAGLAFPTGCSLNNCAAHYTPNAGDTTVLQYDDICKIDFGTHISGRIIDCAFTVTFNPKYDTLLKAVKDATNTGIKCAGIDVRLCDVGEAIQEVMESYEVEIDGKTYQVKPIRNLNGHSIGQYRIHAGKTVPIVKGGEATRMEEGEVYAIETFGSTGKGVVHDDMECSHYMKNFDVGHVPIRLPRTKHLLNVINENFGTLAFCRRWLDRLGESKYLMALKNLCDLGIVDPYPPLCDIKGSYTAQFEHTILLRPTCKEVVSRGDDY
Protocol: MetAP-2 (9 μM) was incubated with increasing concentrations of Protac-1 (dissolved in water) at room temperature for 45 min. Reactions were supplemented with SDS loading dye, fractionated on an SDS/10% polyacryl-amide gel, transferred onto a nitrocellulose membrane, and immunoblotted with rabbit polyclonal anti-MetAP-2 antiserum (Zymed). Enhanced chemiluminescence was performed by using Amersham Pharmacia detection reagents.
The IkBalpha-OVA chimera, Protac-1 (FIG. 1B), was synthesized as described above. […] A Western blot analysis was performed with anti-MetAP-2 antiserum. […] The specificity of MetAP-2 interaction with Protac-1 in vitro was also tested.

MetAP-2 [6] = target: T1, MetAP-2; details: covalent, active site His-231; cited from earlier work

## CCCC[C@@H](C=O)NC(=O)[C@H](CC(C)C)NC(=O)[C@H](CC(C)C)NC(C)=O [LLnL, N-acetyl-leu-leu-norleucinal] (Ac-Leu-Leu-[Nle]-aldehyde)
MetAP-2 [1]; LLnL 50 μM final added to extract
  effect on degradation of MetAP-2-Protac-1: attenuated

## IkBa peptide-suberate-Gly-ovalicinol [Protac-1]
SCF^β-TRCP [2]
  recruitment of MetAP-2 to SCFβ-TRCP beads: specifically recruited MetAP-2 to SCF^β-TRCP
SCF^β-TRCP [3]
  inhibition of ubiquitination of IKK-phosphorylated GST-IkBalpha: inhibited
MetAP-2 [4]
  ubiquitination of MetAP-2 by SCFβ-TRCP: specifically elicited ubiquitination of MetAP-2 by SCF^β-TRCP; also recorded: ubiquitinated in the presence of Protac-1
MetAP-2 [5]
  formation of MetAP-2-Protac-1 complex (upper band / doublet on anti-MetAP-2 Western blot): specifically conjugated to the OVA moiety of Protac-1 in a concentration-dependent manner
MetAP-2 [5]; listed as Protac
  formation of MetAP-2-Protac-1 complex (upper band / doublet on anti-MetAP-2 Western blot): MetAP-2 binds Protac specifically and in a concentration-dependent manner
MetAP-2 [1]; Xenopus egg extract with IKK-EE, OA and OVA, room temperature, MetAP-2 alone not degraded
  degradation of MetAP-2-Protac-1 complex: mostly degraded after 30 mm; also recorded: degraded by proteasomes in Xenopus extracts

## CO[C@@H]1[C@H](OC(=O)/C=C/C=C/C=C/C=C/C(=O)O)CC[C@]2(CO2)[C@H]1[C@@]1(C)O[C@@H]1CC=C(C)C [fumagillin]
MetAP-2 [6]
  inhibition of MetAP-2: inhibit MetAP-2 by covalently binding His-231 in the active site

## CC[C@H](C)[C@H](NC(=O)[C@H]([C@@H](C)CC)N(C)C(C)=O)C(=O)N[C@H](C(=O)N[C@@H](CC(C)C)C(=O)[C@@]1(C)CO1)[C@@H](C)O [epoxomicin]
MetAP-2 [1]; epoxomicin 10 μM final added to extract
  effect on degradation of MetAP-2-Protac-1: attenuated
